# According to patent US12698523B2, “Enhancement of nucleic acid polymerization by aromatic compounds” (priority 2019, dated 2026):
# How the values were obtained:
# [1] = biological target: T1, C4760 DNA polymerase (a variant of DPO4, SEQ ID NO:2) (Saccharolobus solfataricus, UniProt Q97W02, A155G/A42V/D156R/D292Y/D294N/E291S/E324K/E325K/E327K/E63R/E79L/G187P/G299W/I153V/I189F/I248T/I295S/K152A/K317Q/K321Q/K56Y/K78D/L293W/M76W/N188Y/P184Q/Q82W/Q83G/R300S/S297Y/S86E/T290K/T301W/V289W/V296Q); assay: Primer extension on a 45mer RNA template derived from the HIV2 genome sequence; format: biochemical, Sulfolobus solfataricus; details: 2 Mm PEM; 45mer RNA template from HIV2 genome; 30 minutes at 37° C.
# T1 construct: made in house
# Protocol: To begin to investigate the potential of PEMs to enhance diverse polymerase reactions, the ability of PEMS to enable DNA polymerase to utilize RNA as a template was tested. An initial screen of several compounds set forth in Table I was conducted using a 45mer RNA template derived from the HIV2 genome sequence. Primer extension reactions included the following reagents: 50 Mm TrisCl, 200 Mm NH4Oac, 20% PEG8K, 5% NMS, 0.6 nmol PP-60.20, 0.6 Mm MnCl2, 2 μg Kod single-strand binding protein (SSB), 1 M urea, 50 pmol each XNTP, 0.5 pmol template, 0.5 pmol oligonucleotide primer, 1.2 μg purified recombinant C4760 DNA polymerase (a variant of DPO4, see SEQ ID NO:2), and 2 Mm PEM. 10 μL primer extension reactions were run for 30 minutes at 37° C. and reaction products were analyzed by gel electrophoresis.
# [2] = biological target: T1, C4760 DNA polymerase (a variant of DPO4, SEQ ID NO:2); assay: Primer extension assay with the HIV2 100mer template; format: biochemical, Sulfolobus solfataricus; details: HIV2-derived 100mer template
# Protocol: PEM activity of compound 12 was tested in primer extension assays using the HIV2 100mer template. Primer extension reactions included the following reagents: 50 Mm TrisCl, 200 Mm NH4Oac, 20% PEG8K, 5% NMS, 0.6 nmol PP-60.20, 0.6 Mm MnCl2, 2.75 μg/μl Eco single-strand binding protein (SSB), 1 M urea, 50 pmol each XNTP, 1.1 pmol template, 1 pmol oligonucleotide primer, 1.2 μg/μl purified recombinant C4760 DNA polymerase (SEQ ID NO:2), and 0.5, 1, or 1.5 Mm PEM. 10 μL primer extension reactions were run for 30 minutes at 23° C. and reaction products were analyzed by gel electrophoresis. […] Lanes 2-4 show primer extension products from reactions with a structurally related additive lacking robust PEM activity.
# PEM activity of compounds 13 and 14 was tested in primer extension assays using the HIV2 100mer template. Primer extension reactions included the following reagents: 50 Mm TrisCl, 200 Mm NH4Oac, 20% PEG8K, 5% NMS, 0.6 nmol PP-60.20, 0.6 Mm MnCl2, 2.75 μg/μl Eco single-strand binding protein (SSB), 1 M urea, 50 pmol each XNTP, 1.1 pmol template, 1 pmol oligonucleotide primer, 1.2 μg/μl purified recombinant C4760 DNA polymerase (a variant of DPO4, see SEQ ID NO:2), and 0.5, 1, 1.52, or 2.5 Mm PEM. 10 μL primer extension reactions were run for 30 minutes at 23° C. and reaction products were analyzed by gel electrophoresis. A representative gel showing primer extension products is presented in FIG. 11 (the position of the full length HIV2 100mer is indicated by the arrow).
# PEM activity of compounds 16, 17, and 18 and combinations thereof were tested in primer extension assays using the HIV2-derived 100mer template. Primer extension reactions included the following reagents: 50 Mm TrisCl, 200 Mm NH4Oac, 20% or 25% PEG8K, 5% NMS, 0.6 nmol PP-60.20, 0.6 Mm MnCl2, 2 μg Kod single-strand binding protein (SSB), 1 M urea, 50 pmol each XNTP, 1 pmol template, 1 pmol oligonucleotide primer, 1.2 μg purified recombinant C4760 DNA polymerase (a variant of DPO4, see SEQ ID NO:2), and 0.5-2 Mm PEM. 10 μL primer extension reactions were run for 30 minutes at 37° C. and reaction products were analyzed by gel electrophoresis. A representative gel showing primer extension products is presented in FIG. 13 (the position of a 100mer product is indicated by the arrow).
# C4552 DNA polymerase = biological target: T2, C4552 DNA polymerase (Saccharolobus solfataricus, UniProt Q97W02, A155G/A42V/D156R/D292Y/D294N/E291S/E324K/E325K/E327K/E79L/G187P/G299W/I153V/I189F/I248T/I295S/K152A/K317Q/K321Q/K56Y/K78D/L293W/M76W/N188Y/P184Q/Q82W/Q83G/R300S/S297Y/S86E/T290K/T301W/V289W/V296Q); assay: Primer extension assay with three 100mer templates derived from the HIV1, 2 and 3 genomes; format: biochemical, Sulfolobus solfataricus; details: 0.5 Mm PEM; HIV1, HIV2, HIV3 100mer templates; 30 minutes at 23° C.; FIG. 9
# T2 construct: made in house
# Protocol: PEM activity of compounds 9-11 was tested in primer extension assays using three 100mer templates, derived from the HIV1, 2, and 3 genomes. Primer extension reactions included the following reagents: 75 Mm TrisCl, Ph 8.44, 175 Mm NH4Oac, 20% PEG8K, 5% NMS, 0.8 nmol PP-60.20, 0.6 Mm MnCl2, 2.3 μg Tth single-strand binding protein (SSB), 0.5 M or 1 M urea, 200 pmol each XNTP, 1.1 pmol template, 1 pmol oligonucleotide primer, 1.2 μg purified recombinant C4552 DNA polymerase, and 0.5 Mm PEM. 10 μL primer extension reactions were run for 30 minutes at 23° C. and reaction products were analyzed by gel electrophoresis.
# DNA polymerase = assay: Screen of PEMs for enhancement of XNTP polymerization (primer extension reaction, gel electrophoresis); format: biochemical; details: for DNA polymerase-mediated primer extension with XNTPs (length of extension products): FIG. 4 gel, no PEM additive: up to only around 14 XNTPs
# Description: The Sequencing by Expansion (SBX) methodology developed by the inventors provides significant performance enhancements in sequence read efficiency and accuracy of Xpandomers relative to native DNA. However, initial transcription of the sequence of the natural DNA template onto the measurable Xpandomer relies on the ability of DNA polymerase to utilize XNTPs as substrates (the generalized structure of an XNTP is discussed herein with reference to FIG. 1A and FIG. 2). […] In an effort to improve the efficiency and accuracy of XNTP polymerization into Xpandomers, several PEMs were screened for the ability to enhance DNA polymerase primer extension reactions using XNTPs as substrates.
# A representative primer extension reaction may include the following reagents: 2 pmol primer, 2.2 pmol 45mer oligonucleotide template, 50 pmol of each XNTP (XATP, XCTP, XGTP, and XTTP), 50 Mm Tris HCl, Ph 6.79, 200 Mm NaCl, 20% PEG, 5% NMS, 0.5 nmol polyphosphate 60.19, 0.3 Mm MnCl2, and 0.6 μg of purified recombinant DNA polymerase protein. Reactions may be run for 1 hr at 23° C. Reaction products (i.e., constrained Xpandomers) are treated to cleave the phosphoramidate bonds, thereby generating linearized Xpandomers. Reaction products may be analyzed using gel electrophoresis on 4-12% acrylamide gels to resolve and visualize Xpandomer products of different lengths. For the PEM screen described above, PEMs were typically tested in the micro to millimolar range.
# Again, this PEM activity is specific for compound 2, as other unrelated aromatic compounds had no effect (lanes 2-7).
# T1 sequence (Q97W02 other isoform, or with tags, fused parts or gaps with the stated changes): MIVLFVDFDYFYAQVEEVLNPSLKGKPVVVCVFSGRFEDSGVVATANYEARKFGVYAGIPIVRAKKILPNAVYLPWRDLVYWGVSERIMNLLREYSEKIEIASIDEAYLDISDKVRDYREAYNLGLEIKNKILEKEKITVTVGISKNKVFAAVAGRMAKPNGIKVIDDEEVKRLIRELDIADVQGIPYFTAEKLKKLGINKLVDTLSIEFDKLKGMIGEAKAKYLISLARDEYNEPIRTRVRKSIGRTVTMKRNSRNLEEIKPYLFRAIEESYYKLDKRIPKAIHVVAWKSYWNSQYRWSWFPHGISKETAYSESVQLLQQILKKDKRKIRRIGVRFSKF
# T2 sequence (Q97W02 other isoform, or with tags, fused parts or gaps with the stated changes): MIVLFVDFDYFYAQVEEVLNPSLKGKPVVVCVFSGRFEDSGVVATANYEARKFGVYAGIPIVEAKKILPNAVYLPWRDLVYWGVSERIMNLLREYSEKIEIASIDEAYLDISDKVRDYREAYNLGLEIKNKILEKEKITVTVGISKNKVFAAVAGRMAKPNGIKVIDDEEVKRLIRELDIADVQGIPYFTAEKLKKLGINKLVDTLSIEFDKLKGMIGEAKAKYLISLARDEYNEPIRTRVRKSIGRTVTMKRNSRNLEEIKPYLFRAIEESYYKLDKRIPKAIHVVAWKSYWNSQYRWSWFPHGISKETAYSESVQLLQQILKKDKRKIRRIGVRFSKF
smiles,measurement,setting,value
"CCNC(=O)c1cc(-c2cn(-c3ccc(C(=O)O)c(O)c3)nn2)nc(-c2cn(-c3ccc(C(=O)O)c(O)c3)nn2)c1 [Compound 17, 4,4′-((4-(ethylcarbamoyl)pyridine-2,6-diyl)bis(1H-1,2,3-triazole-4,1-diyl))bis(2-hydroxybenzoic acid)]",PEM activity on an RNA template,[1],display PEM activity on an RNA template
same,polymerization of XNTPs into lengthy Xpandomer copies (PEM activity),"[2]; 2 Mm compound 16, 0.5, 1, 2, and 3 Mm compound 17, Kod SSB, 30 minutes at 37° C., FIG. 13",enable polymerization of XNTPs into lengthy Xpandomer copies of the 100mer template in a manner comparable to that of compound 14
same,"polymerization of XNTPs into lengthy Xpandomer copies, combination of PEMs","[2]; combination of 2 Mm compound 14 and 0.1 Mm or 0.3 Mm compound 17, FIG. 13 lanes 7-9",also enabled polymerization of XNTPs into lengthy Xpandomer copies of the 100mer template
"COc1cc(-c2cn(-c3ccc(C(=O)O)c(O)c3)nn2)nc(-c2cn(-c3ccc(C(=O)O)c(O)c3)nn2)c1 [Compound 9, 4,4′-((4-methoxypyridine-2,6-diyl)bis(1H-1,2,3-triazole-4,1-diyl))bis(2-hydroxybenzoic acid)]",polymerization of XNTPs into full length Xpandomer copies (PEM activity),C4552 DNA polymerase,enable XNTP polymerization at least as efficiently as compound 1
"O=C(O)c1ccc(-n2cc(-c3cccc(-c4cn(-c5ccc(C(=O)O)c(O)c5)nn4)c3)nn2)cc1O [Compound 3, 4,4′-(1,3-phenylenebis(1H-1,2,3-triazole-4,1-diyl))bis(2-hydroxybenzoic acid)]",DNA polymerase-mediated primer extension with XNTPs (length of extension products),DNA polymerase,considerably longer extension products
"CNC(=O)c1cc(-c2cn(-c3ccc(C(=O)O)c(O)c3)nn2)nc(-c2cn(-c3ccc(C(=O)O)c(O)c3)nn2)c1 [Compound 18, 4,4′-((4-(methylcarbamoyl)pyridine-2,6-diyl)bis(1H-1,2,3-triazole-4,1-diyl))bis(2-hydroxybenzoic acid)]","polymerization of XNTPs into full length copies, combination of PEMs","[2]; combination of 2 Mm compound 16 and 0.1 Mm or 0.3 Mm compound 18, FIG. 13 lanes 10-12",enable polymerization of XNTPS into full length copies of the 100mer template
"O=C(O)c1ccc(-n2cc(-c3ccc4[nH]c5ccc(-c6cn(-c7ccc(C(=O)O)c(O)c7)nn6)cc5c4c3)nn2)cc1O [Compound 4, 4,4′-((9H-carbazole-3,6-diyl)bis(1H-1,2,3-triazole-4,1-diyl))bis(2-hydroxybenzoic acid)]",DNA polymerase-mediated primer extension with XNTPs (length of extension products),DNA polymerase,considerably longer extension products
"O=C(O)c1ccc(-n2cc(-c3cncc(-c4cn(-c5ccc(C(=O)O)c(O)c5)nn4)c3)nn2)cc1O [Compound 2, 4,4′-(pyridine-3,5-diylbis(1H-1,2,3-triazole-4,1-diyl))bis(2-hydroxybenzoic acid)]",primer extension activity with XNTPs,"DNA polymerase; FIG. 5 gel, compound at various concentrations (lanes 8-10)",significantly enhances primer extension activity
"O=C(O)c1ccc(-n2cc(-c3cc([N+](=O)[O-])cc(-c4cn(-c5ccc(C(=O)O)c(O)c5)nn4)n3)nn2)cc1O [Compound 11, 4,4′-((4-nitropyridine-2,6-diyl)bis(1H-1,2,3-triazole-4,1-diyl))bis(2-hydroxybenzoic acid)]",polymerization of XNTPs into full length Xpandomer copies (PEM activity),C4552 DNA polymerase,enable XNTP polymerization at least as efficiently as compound 1
